# In patent publication US20240226342A1, “REACTIVE OXYGEN SPECIES IMAGING AGENTS” (Washington University, priority 2022, published 2024):
# “And” between values parts separate entries of the source, which are not always exact repeats. Identical values can stand only once.
# How the values were obtained:
# [1] = Metabolite analysis after incubation in human serum or plasma (QC radio-HPLC); type: in vitro ADME; details: 37° C., upto 1 h
# From the text: Oxidative imbalance and functional impairment of mitochondria may mediate pathogenesis of neurodegenerative diseases and mitochondria are among the prominent intracellular site for ROS generation. Thus, a 2nd generation redox-sensitive neuroROS tracer was designed (also identified as either as SLN 128 or 12 (noncarrier added) or ^18F-13 (PET tracer); see e.g., FIG. 2) for the detection of total ROS within cells undergoing pro-oxidative stage. While the unlabeled/noncarrier counterpart of the probe 12 was synthesized and characterized through standard analytical methods (Proton NMR, proton-decoupled 13C-NMR, HRMS, Elemental analysis), the carrier added ^18F-13 (Lab ID:18F-SLN128) was synthesized through a reaction between the tosylated precursor 11 and KF{18F}-/Kryptofix 222 and followed by deprotection of methoxymethyl ether 11 in situ with TFA as shown (see e.g., FIG. 2), purified on semipreparatory C-18 column, the desired fraction with a Rt=12 min was collected, concentrated, reconstituted in 5% ethanol/95%sterile saline and analyzed for purity on QC radio-HPLC (radiochemical yield: 15-20%; radiochemical purity >99%; specific activity:1400-1700 Ci/mmole) and identified by spiking with the noncarrier added/unlabeled counterpart. […] For analysis of metabolites, ^18F-SLN-128 was incubated with either human serum or plasma at 37° C. as a function of time and analyzed on QC Radio-HPLC.
# [2] = Quantitative biodistribution in normal mice; type: in vivo
# Method: FIG. 8 is a line graph showing biodistribution of 18F-SLN128 in normal BI6 mice in accordance with the present disclosure. Shown is uptake (5 min, 60 min, 2 h) in brain and other critical organs quantified in terms of percent injected dose per gram of the tissue (% ID/g).
# Lipopolysaccharide (LPS), is an endotoxin, released from Gram-negative bacteria. Next, the ability of SLN128 to detect either LPS or 3-Nitropropionic acid (3-NP) induced ROS in human cells was evaluated through live-cell fluorescence imaging. LPS is detected by toll-like receptor 4 (TLR4), a broadly expressed pattern recognition receptor found both on different cell types, including glial cells, and neurons. TLR4 engagement triggers the generation of mitochondrial superoxide from electron transport complex I, which in turn promotes bacterial killing. LPS treatment also triggers increased cytokine and chemokine expression in brain thus driving inflammation. Furthermore, 3-NP is an irreversible inhibitor of mitochondrial succinate dehydrogenase (SDH), which has been used to explore the molecular mechanisms of cell death associated with mitochondrial dysfunction and neurodegeneration. […] To this end, intracellular localization of SLN-128 in either the presence or absence of mitotracker deep red (control) was simulataneously assessed in either the LPS or 3-NP stimulated human glioblastoma U87 cells (see e.g., FIG. 4). […] Further, uptake of SLN 128 in U87 cells was compared under identical conditions with mitoSOX, a probe extensively used for assessing mROS. […] To test, whether SLN128 has ability to monitor therapeutic effects in U87 cells under identical conditions, SLN128 was incubated in either presence or absence of resveratrol (commonly used for mitigating mitochondrial ROS production) under 3 different conditions. The probe uptake was quantified as corrected total cell fluorescence (CTCF) using image J as described earlier. […] (see e.g., FIG. 6). […] Uptake in brain and other critical organs was analyzed in terms of percent injected dose per gram of the tissue (% ID/g).
# For comparison, brain uptake ratios of [^18F]-AVID-45 ([^18F]-Florbetapir)(2 min/2 h) and [^18F]-Florbetaben (2 min/4 h) in normal mice are 4.07 (% ID/g (brain): 2 min: 7.33±1.54; 2 h: 1.80±0.07; 7.33/1.80; 4.07) 57 and 5.0 (% ID/g (brain): 2 min: 4.77; 4 h: 0.95; 4.77/0.95; 5.02) 58, respectively.
# [3] = tested on: 3NP-induced ROS-mediated neurodegeneration in mice; assay: PET/CT imaging after stereotaxic injection of 3-NP into striatum; type: in vivo
# Method: FIG. 10A-FIG. 10D is an exemplary embodiment showing preclinical PET/CT imaging in accordance with the present disclosure. C57BI6 mice (n=4) were injected with either 3-Nitropropionic acid (3-NP) or saline into striatum. 72 h following treatments, 18F-SLN-128 was injected via tail-vein into mice. FIG. 10A includes PET/CT images shown as a summation frames from 45-60 min. Dynamic PET images acquired from 0 min to 60 min post tail-vein injection. Left: Control; Right: 3-NP treated (1 mg/kg, 72 h post treatment). FIG. 10B is a bar graph showing uantified uptake (% ID/cm^3) from PET imaging. FIG. 10C includes images of brains extracted from mice, fixed in PFA/sucrose; sectioned (40 μm); stained with Cresyl violet; Arrow indicates injection site. […]
# Systemic administration of LPS induces oxidative stress and resulting a release of inflammatory cytokines, sustained microglial activation, and neuronal cell loss in brain areas, such as the hippocampus, cerebral cortex, substantia nigra, ventral tegmental area, and thalamus, alters the levels of neurotransmitters in adult animals, and cerebellum. […] Finally, the brain uptake (see e.g., FIG. 9C) derived from PET imaging also correlated with 60 min post imaging quantified uptake (see e.g., FIG. 9D) indicating potential of the radiotracer for imaging endotoxin mediated brain inflammation in vivo. […]
smiles,measurement,setting,value
COc1ccc2c(c1)N(C)C(c1ccc(O)c(OCC[18F])c1)c1cccn1-2 (centres unmarked) [18F-SLN-128],metabolic stability in human serum,[1],remains non-metabolized
same,brain uptake clearance ratio relative to [18F]-AV-45,[2]; healthy mice,2.9 fold
same,brain uptake clearance ratio relative to [18F]-Florbetaben,[2]; healthy mice,2.3 fold
same,clearance ratio relative to the benchmark (≥3.5) for crossing the blood-brain barrier,"[2]; mouse, in vivo",3.3 fold
same,brain clearance ratio 5 min/60 min,[2]; normal mice,11.4 and 11.3
same,clearance from other critical organs,[2]; normal mice,excreted from other critical organs over 1 h
same,defluorination / bone accumulation,[2]; normal mice,without defluorination (no bone accumulation)
same,brain uptake,"[2]; normal mice, 5 min post tail-vein injection",4.11±0.32 % ID/g
same,brain uptake,"[2]; normal mice, 60 min post tail-vein injection",0.36±0.01 % ID/g
same,correlation of brain uptake with immunohistochemistry,[3]; 3-NP treated mice,maps with neurodegeneration and microglial activation in the striatum regions
same,retention in brains of 3-NP treated mice compared with saline treated,[3]; 72 h post 3-NP into striatum,2 fold
